Counter-ions that a name gives are not always drawn.
Test: Particle size data of fesoterodine fumarate
Type: physicochemical
Procedure: (Particle size data of Fesoterodine fumarate: D10-47.3μ; D50-156μ; D90-293μ) • Procedure: Mixture of fesoterodine fumarate, microcrystalline cellulose, corn starch, lactose monohydrate, hypromellose, and povidone K 30 was lubricated with magnesium stearate and talc. The lubricated blend was then compressed into tablets. The tablets were finally coated with Opadry dispersion in purified water.
The formulation was prepared with the same excipients in the same quantity as used in Example 1. Only difference is in the particle size of fesoterodine fumarate used in that formulation. In this comparative example, particle size of fesoterodine fumarate is used such that D10-2.67μ; D50-34.48μ; D90-125.3μ.

[1] = fesoterodine fumarate used in Comparative Example 1
[2] = fesoterodine fumarate used in Example 1

- Particle size D10 [1]: 2.67 μ
- Particle size D50 [1]: 34.48 μ
- Particle size D90 [1]: 125.3 μ
- Particle size D10 [2]: 47.3 μ
- Particle size D50 [2]: 156 μ
- Particle size D90 [2]: 293 μ
SMILES: CC(C)C(=O)Oc1ccc(CO)cc1[C@H](CCN(C(C)C)C(C)C)c1ccccc1 [Fesoterodine fumarate, 2-[(1R)-3-(diisopropylamino)-1-phenylpropyl]-4-(hydroxymethyl)phenyl isobutyrate]

Reference: patent US20140199401A1, “EXTENDED RELEASE PHARMACEUTICAL COMPOSITIONS OF FESOTERODINE” (CADILA HEALTHCARE LIMITED, priority 2011, published 2014)
